Reference: ChEMBL document CHEMBL5291721, “A preclinical secondary pharmacology resource illuminates target-adverse drug reaction associations of marketed drugs” (Nat Commun, 2023)

Key:
[1] = biological target: Gamma-aminobutyric acid receptor subunit alpha-1/alpha-2/beta-2/gamma-2 (Homo sapiens, UniProt P14867+P18507+P47869+P47870); type: functional, cell-based
Glucagon receptor = Glucagon receptor (Homo sapiens, UniProt P47871)
Progesterone receptor = biological target: T1, Progesterone receptor (Homo sapiens, UniProt P06401)
T1 sequence (P06401 whole entry): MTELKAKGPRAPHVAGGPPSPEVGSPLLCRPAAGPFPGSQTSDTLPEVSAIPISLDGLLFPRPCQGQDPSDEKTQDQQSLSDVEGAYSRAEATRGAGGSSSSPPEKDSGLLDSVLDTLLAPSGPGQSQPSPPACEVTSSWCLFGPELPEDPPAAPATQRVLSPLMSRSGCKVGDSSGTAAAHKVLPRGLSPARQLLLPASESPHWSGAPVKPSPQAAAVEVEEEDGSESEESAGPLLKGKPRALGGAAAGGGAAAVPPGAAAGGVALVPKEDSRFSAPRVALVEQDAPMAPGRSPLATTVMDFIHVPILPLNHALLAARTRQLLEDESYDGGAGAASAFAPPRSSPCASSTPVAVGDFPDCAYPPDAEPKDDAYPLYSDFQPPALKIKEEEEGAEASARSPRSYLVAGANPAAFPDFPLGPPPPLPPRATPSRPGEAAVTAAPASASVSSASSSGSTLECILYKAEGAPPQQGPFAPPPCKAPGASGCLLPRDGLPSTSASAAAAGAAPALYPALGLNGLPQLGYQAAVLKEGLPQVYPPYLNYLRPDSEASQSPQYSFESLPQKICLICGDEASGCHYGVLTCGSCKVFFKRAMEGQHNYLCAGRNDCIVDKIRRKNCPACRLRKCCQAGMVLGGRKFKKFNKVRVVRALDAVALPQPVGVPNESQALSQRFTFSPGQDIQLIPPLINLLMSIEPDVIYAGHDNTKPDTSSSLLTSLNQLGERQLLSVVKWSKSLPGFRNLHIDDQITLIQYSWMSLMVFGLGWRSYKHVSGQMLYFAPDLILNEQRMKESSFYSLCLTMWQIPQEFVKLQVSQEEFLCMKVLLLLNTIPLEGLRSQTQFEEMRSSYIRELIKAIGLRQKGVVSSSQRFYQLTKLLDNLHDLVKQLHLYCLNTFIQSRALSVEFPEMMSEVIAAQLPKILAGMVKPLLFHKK

[2] = biological target: T2, Neuropeptide Y receptor type 2 (Homo sapiens, UniProt P49146)
T2 sequence (P49146 whole entry): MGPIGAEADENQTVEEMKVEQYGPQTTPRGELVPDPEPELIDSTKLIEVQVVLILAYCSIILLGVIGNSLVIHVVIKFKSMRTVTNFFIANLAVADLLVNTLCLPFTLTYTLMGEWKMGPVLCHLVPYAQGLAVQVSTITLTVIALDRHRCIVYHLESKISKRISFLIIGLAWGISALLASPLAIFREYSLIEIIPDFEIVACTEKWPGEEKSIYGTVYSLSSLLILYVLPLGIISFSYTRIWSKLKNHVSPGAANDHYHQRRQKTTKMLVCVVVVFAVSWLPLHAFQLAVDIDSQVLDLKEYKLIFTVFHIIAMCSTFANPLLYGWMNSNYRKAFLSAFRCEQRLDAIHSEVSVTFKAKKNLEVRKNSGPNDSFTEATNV

[3] = biological target: T3, Alpha-1A adrenergic receptor (Homo sapiens, UniProt P35348)
T3 sequence (P35348 whole entry): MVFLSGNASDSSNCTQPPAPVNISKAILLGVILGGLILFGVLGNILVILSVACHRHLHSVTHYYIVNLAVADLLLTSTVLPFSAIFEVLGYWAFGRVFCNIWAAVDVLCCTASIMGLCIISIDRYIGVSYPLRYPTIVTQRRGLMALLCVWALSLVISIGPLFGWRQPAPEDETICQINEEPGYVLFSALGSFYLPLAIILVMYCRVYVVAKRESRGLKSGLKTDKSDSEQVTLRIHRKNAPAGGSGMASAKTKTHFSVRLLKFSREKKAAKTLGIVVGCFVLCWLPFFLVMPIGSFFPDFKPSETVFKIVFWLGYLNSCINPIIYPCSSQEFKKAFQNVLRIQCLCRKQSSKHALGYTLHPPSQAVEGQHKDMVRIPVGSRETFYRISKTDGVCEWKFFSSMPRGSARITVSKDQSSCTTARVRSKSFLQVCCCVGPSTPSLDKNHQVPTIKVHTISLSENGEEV

Substance-P receptor = Substance-P receptor (Homo sapiens, UniProt P25103)
[4] = biological target: 5-hydroxytryptamine receptor 2B (Homo sapiens, UniProt P41595)
Further: assay procedure not described here.

Sequence of Substance-P receptor (P25103 whole entry): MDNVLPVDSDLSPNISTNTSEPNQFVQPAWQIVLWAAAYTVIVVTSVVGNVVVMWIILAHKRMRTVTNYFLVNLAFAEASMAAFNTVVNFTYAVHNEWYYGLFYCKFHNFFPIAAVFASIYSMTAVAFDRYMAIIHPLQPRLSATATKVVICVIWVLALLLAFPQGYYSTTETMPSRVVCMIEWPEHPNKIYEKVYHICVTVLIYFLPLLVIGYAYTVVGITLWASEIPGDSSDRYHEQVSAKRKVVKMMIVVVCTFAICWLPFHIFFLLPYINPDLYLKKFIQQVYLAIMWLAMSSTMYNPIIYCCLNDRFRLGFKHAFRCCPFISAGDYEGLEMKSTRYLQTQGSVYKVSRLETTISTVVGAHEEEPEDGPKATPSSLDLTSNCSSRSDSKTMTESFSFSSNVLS
Sequence of Glucagon receptor (P47871 whole entry): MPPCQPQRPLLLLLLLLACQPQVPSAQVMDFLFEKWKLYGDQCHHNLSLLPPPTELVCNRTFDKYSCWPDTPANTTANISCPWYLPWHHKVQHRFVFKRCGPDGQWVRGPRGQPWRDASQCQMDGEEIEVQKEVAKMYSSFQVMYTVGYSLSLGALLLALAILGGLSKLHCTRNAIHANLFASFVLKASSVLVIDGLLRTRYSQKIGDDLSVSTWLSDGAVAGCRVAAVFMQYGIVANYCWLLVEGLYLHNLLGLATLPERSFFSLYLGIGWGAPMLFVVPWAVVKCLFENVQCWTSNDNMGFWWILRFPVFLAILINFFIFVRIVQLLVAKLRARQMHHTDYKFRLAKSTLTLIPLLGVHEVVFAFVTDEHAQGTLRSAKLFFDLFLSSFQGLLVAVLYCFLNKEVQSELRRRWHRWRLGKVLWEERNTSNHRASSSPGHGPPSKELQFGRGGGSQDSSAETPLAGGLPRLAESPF
Sequence of Gamma-aminobutyric acid receptor subunit alpha-1/alpha-2/beta-2/gamma-2 (P14867 whole entry): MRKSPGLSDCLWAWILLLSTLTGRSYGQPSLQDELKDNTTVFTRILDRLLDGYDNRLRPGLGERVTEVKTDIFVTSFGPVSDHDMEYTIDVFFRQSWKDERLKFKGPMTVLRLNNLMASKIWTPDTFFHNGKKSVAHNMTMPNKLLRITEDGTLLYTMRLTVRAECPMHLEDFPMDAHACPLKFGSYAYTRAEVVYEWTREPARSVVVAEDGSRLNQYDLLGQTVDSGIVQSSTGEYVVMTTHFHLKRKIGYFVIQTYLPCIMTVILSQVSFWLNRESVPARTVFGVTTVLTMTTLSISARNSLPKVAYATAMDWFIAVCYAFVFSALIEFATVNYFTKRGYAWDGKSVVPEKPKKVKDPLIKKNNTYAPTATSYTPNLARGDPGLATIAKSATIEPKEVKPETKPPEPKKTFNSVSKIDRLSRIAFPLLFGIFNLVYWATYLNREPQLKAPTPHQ
Sequence of Gamma-aminobutyric acid receptor subunit alpha-1/alpha-2/beta-2/gamma-2 (P47870 whole entry): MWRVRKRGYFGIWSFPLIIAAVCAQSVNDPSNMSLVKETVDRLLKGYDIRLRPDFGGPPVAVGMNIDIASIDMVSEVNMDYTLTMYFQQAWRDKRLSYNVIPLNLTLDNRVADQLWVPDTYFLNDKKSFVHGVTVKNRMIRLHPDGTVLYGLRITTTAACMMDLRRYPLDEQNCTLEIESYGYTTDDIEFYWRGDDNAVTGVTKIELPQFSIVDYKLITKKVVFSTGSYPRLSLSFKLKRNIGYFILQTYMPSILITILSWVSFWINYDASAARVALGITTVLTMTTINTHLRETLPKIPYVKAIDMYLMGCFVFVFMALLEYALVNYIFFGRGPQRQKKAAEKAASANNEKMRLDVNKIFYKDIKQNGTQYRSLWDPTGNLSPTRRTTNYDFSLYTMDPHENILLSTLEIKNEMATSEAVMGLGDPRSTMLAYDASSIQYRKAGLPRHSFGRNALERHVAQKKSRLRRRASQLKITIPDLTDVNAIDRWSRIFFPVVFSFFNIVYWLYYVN
Sequence of Gamma-aminobutyric acid receptor subunit alpha-1/alpha-2/beta-2/gamma-2 (P18507 whole entry): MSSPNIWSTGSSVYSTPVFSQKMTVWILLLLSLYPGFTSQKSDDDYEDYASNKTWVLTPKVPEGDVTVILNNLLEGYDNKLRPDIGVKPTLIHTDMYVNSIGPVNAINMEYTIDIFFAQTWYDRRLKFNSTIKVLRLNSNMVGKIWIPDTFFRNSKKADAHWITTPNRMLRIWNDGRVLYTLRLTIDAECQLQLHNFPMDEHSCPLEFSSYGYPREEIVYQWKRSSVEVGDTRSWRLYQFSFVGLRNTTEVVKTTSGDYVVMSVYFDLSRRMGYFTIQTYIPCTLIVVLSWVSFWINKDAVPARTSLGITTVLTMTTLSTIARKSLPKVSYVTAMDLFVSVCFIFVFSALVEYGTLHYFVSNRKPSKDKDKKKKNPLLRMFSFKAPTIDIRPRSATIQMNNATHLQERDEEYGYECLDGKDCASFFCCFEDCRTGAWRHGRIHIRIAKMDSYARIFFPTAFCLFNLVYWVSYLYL
Sequence of Gamma-aminobutyric acid receptor subunit alpha-1/alpha-2/beta-2/gamma-2 (P47869 whole entry): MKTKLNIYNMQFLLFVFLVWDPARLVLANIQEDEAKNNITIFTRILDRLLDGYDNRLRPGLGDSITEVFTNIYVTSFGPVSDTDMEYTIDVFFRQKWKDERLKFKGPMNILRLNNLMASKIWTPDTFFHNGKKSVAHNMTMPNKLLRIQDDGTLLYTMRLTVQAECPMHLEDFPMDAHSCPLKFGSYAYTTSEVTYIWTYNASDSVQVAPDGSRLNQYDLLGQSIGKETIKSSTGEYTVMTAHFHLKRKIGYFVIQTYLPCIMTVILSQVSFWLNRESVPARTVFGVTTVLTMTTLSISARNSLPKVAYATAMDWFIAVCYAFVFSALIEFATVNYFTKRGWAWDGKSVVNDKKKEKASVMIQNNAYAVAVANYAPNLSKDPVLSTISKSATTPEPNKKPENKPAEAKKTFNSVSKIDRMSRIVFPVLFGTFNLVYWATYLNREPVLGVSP
Sequence of 5-hydroxytryptamine receptor 2B (P41595 whole entry): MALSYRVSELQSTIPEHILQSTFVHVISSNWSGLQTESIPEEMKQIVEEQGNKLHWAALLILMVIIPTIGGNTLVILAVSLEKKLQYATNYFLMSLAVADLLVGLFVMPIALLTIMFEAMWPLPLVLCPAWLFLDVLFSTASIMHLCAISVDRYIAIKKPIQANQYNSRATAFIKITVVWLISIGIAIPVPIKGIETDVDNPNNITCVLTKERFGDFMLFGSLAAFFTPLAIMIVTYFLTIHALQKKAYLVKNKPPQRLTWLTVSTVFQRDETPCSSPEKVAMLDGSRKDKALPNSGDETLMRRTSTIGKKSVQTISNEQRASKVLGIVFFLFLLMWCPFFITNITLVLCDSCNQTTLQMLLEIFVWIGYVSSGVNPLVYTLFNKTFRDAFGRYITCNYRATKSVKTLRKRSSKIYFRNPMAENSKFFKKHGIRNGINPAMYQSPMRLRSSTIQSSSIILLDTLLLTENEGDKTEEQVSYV

Compound	AC50 [1]	AC50 (Glucagon receptor)	AC50 (Progesterone receptor)	AC50 [2]	AC50 [3]	AC50 (Substance-P receptor)	AC50 [4]
Nc1nc(NC2CC2)c2ncn([C@H]3C=C[C@@H](CO)C3)c2n1 [ABACAVIR]	> 30 µM	–	–	–	–	–	–
Cc1cn([C@H]2C[C@H](N=[N+]=[N-])[C@@H](CO)O2)c(=O)[nH]c1=O [ZIDOVUDINE]	–	> 30 µM	> 30 µM	> 30 µM	> 10 µM	> 10 µM	–
Cc1cn([C@H]2C=C[C@@H](CO)O2)c(=O)[nH]c1=O [STAVUDINE]	–	> 30 µM	> 30 µM	> 30 µM	> 10 µM	> 10 µM	> 10 µM
CN1C(C(=O)Nc2ccccn2)=C(O)c2sc(Cl)cc2S1(=O)=O [LORNOXICAM]	–	–	> 30 µM	–	–	–	> 10 µM
CCOC(=O)[C@H](CCc1ccccc1)N[C@@H](C)C(=O)N1[C@H](C(=O)O)C[C@@H]2CCC[C@@H]21	–	> 30 µM	> 30 µM	> 30 µM	> 10 µM	> 10 µM	> 10 µM
CS(=O)(=O)c1ccc(C2=C(c3ccccc3)C(=O)OC2)cc1 [ROFECOXIB]	–	> 30 µM	> 30 µM	> 30 µM	> 10 µM	> 10 µM	> 10 µM
C[N+]1(C)CCC(OC(=O)C(O)(c2ccccc2)C2CCCC2)C1 (stereo not drawn) [GLYCOPYRRONIUM BROMIDE]	–	–	> 30 µM	–	–	–	–
CN(C)CCC(c1ccc(Cl)cc1)c1ccccn1 (stereo not drawn) [CHLORPHENIRAMINE]	–	> 30 µM	> 30 µM	> 30 µM	> 10 µM	> 10 µM	4.06 µM
CC1=C(C(=O)O)N2C(=O)[C@@H](NC(=O)[C@H](N)c3ccccc3)[C@H]2SC1 [CEPHALEXIN ANHYDROUS]	–	> 30 µM	> 30 µM	> 30 µM	> 10 µM	> 10 µM	–
CC[C@H]1OC(=O)[C@H](C)[C@@H](O[C@H]2C[C@@](C)(OC)[C@@H](O)[C@H](C)O2)[C@H](C)[C@@H](O[C@@H]2O[C@H](C)C[C@H](N(C)C)[C@H]2O)[C@](C)(O)C[C@@H](C)CN(C)[C@H](C)[C@@H](O)[C@]1(C)O [AZITHROMYCIN]	–	> 30 µM	> 30 µM	> 30 µM	> 10 µM	> 10 µM	> 10 µM
O=C(Cc1ccc(-c2ccccc2)cc1)Nc1ccccn1 [DIFENPIRAMIDE]	> 30 µM	–	–	–	–	–	–
C[C@]12CCC(=O)C=C1CC[C@@H]1[C@@H]2[C@@H](O)C[C@@]2(C)[C@H]1CC[C@]2(O)C(=O)CO [HYDROCORTISONE]	–	> 30 µM	7.61 µM	> 30 µM	–	> 10 µM	> 10 µM
CC(=O)Nc1ccc(O)cc1 [ACETAMINOPHEN]	> 30 µM	–	–	–	–	–	–
Cc1ccc(-c2cc(C(F)(F)F)nn2-c2ccc(S(N)(=O)=O)cc2)cc1 [CELECOXIB]	–	> 30 µM	> 30 µM	> 30 µM	> 10 µM	> 10 µM	> 10 µM
Clc1ccc2nsnc2c1NC1=NCCN1 [TIZANIDINE]	–	> 30 µM	> 30 µM	> 30 µM	1.92 µM	> 10 µM	> 10 µM
CCCSc1ccc2nc(NC(=O)OC)[nH]c2c1 [ALBENDAZOLE]	–	–	> 30 µM	–	–	–	–
CO[C@H]1C[C@@H]2CC[C@@H](C)[C@@](O)(O2)C(=O)C(=O)N2CCCC[C@H]2C(=O)O[C@H]([C@H](C)C[C@@H]2CC[C@@H](O)[C@H](OC)C2)CC(=O)[C@H](C)/C=C(\C)[C@@H](O)[C@@H](OC)C(=O)[C@H](C)C[C@H](C)/C=C/C=C/C=C/1C [SIROLIMUS]	–	> 30 µM	> 30 µM	> 30 µM	–	–	–
CCC(C)n1ncn(-c2ccc(N3CCN(c4ccc(OCC5COC(Cn6cncn6)(c6ccc(Cl)cc6Cl)O5)cc4)CC3)cc2)c1=O (stereo not drawn) [ITRACONAZOLE]	–	> 30 µM	> 30 µM	> 30 µM	> 10 µM	1.54 µM	> 10 µM
